Assay results reported in US7872041B2, “Use of rotigotine for treating and preventing Parkinson's plus syndrome” (priority 2004, dated 2011).

Experiments:
[1] = transdermal administration, WO 02/089777 and other authors; cited from earlier work
[2] = system: MPTP model in monkeys (macaques); assay: Progressive MPTP primate model, pilot study; format: in vivo
Protocol: In the MPTP model used, which reflects the progressive course of dopaminergic cell destruction in primates, monkeys (macaques) were injected with subthreshold toxic doses of MPTP over several days. The parkinsonian symptoms developed in the model over a period of approximately 2 weeks. As soon as a specific degree of damage was reached, daily injections of rotigotine were provided in a formulation giving rise to a continuous plasma level over a 24 hour period. The injections of MPTP were stopped as soon as the motor activity in the controls had reduced by a specific degree (approximately 5 days later). The animals' behavior was evaluated every day. […] At the end of rotigotine application or at the end of the wash-out phase, in each case one group of animals was sacrificed and the condition of the basal ganglia investigated histologically and biochemically. The density of the nerve endings in the striatum of the treated animals was much higher than it was in the untreated animals.

MPTP mouse model [3] = assay: Subacute MPTP model, dopamine transporter density in the striatum; format: in vivo, mice
Protocol: To induce intoxication, mice were administered 80 mg/kg of the neurotoxin 1-methyl-4-phenyl-1,2,3,6-tetrahydro-pyridine (MPTP) (in portions of 20 mg/kg in two-hourly intervals, groups 3-6 in FIGS. 1 and 2) resulting in the degeneration of about 50-60% of the neurons of the substantia nigra (maximum degeneration in group 3 in FIGS. 1 and 2). Rotigotine was administered daily in doses of 0.3, 1 or 3 mg/kg respectively over 7 days as a so-called ‘slow-release formulation’ (see embodiment 2) (groups 4-6 in FIGS. 1 and 2). A group of MPTP-treated animals (group 3) was given rotigotine-vehicle solution (see embodiment 2 without rotigotine HCl) and served as a reference. The controls were groups 1, 2 and 7, whereby group 1 is not given any treatment, group 2 is treated with the vehicle-solutions for MPTP and rotigotine, and group 7 was exclusively given rotigotine. The animals were sacrificed on day 8, their brains removed and frozen. Frozen sections were incubated with 100 pm[^125I] PE21 ([^125I]-(E)-N(3-iodoprop-2-enyl)-2β-carboxymethyl-3β-(4′-methylphenyl)-nortropane) in a phosphate buffer, pH 7.4 in order to mark the quantity of dopamine transporters still present in the striatum as an indicator of the quantity of functioning nerve endings. […] This is clear evidence of the neuroprotective properties of the substance (FIG. 1 and 2).

MPTP mouse model [4] = assay: Acute MPTP model, FluoroJade staining of degenerating neurons; format: in vivo, mice; settings: for Number of degenerating neurons: FluoroJade staining
Protocol: The results set forth below in Table 2 indicate the number of acutely degenerating neurons in the MPTP mouse model shown with FluoroJade staining with and without treatment with a single administration of rotigotine:
To induce intoxication, mice were administered 80 mg/kg of the neurotoxin 1-methyl-4-phenyl-1,2,3,6-tetrahydro-pyridine (MPTP) (in portions of 20 mg/kg at two-hourly intervals) resulting in the degeneration of approximately 50-60% of the neurons in the substantia nigra. Approximately 16 hours previously, rotigotine was added in doses of 0.3, 1 or 3 mg/kg respectively as a so-called ‘slow-release formulation’ (see embodiment 2). Diffusion and absorption latencies mean that rotigotine is optimally available when MPTP is added. Animals that were only given the vehicle solution (see embodiment 2 without rotigotine HCl) served as controls. After 24 hours, the animals were sacrificed and the brains fixed. The brain sections were stained with FluoroJade for the identification of degenerating cells. Immunohistochemical marking of the tyrosine hydroxylase was used to identify dopaminergic neurons. […] The number of the degenerating neurons was approximately 50% lower after the application of rotigotine, which is further confirmation of the neuroprotective properties of the substance (Table 2).

## CCCN(CCc1cccs1)[C@H]1CCc2c(O)cccc2C1 [rotigotine, (−)5,6,7 ,8-tetrahydro-6-[propyl[2-(2-thienyl)ethyl]amino]-1-naphthol]
[1]
  UPDRS scores: improvement
[2]; after the treatment and after the wash-out phase
  Content of preproenkephalin: tendency toward normalization
[2]; treated versus untreated animals
  Density of the nerve endings in the striatum: much higher
[2]; under treatment with daily injections and in the following wash-out phase
  Motor activity of the animals: significantly improved
MPTP mouse model [3]; 0.3, 1 or 3 mg/kg daily over 7 days, slow-release formulation
  Survival of the neurons and the nerve endings: improves the survival of the neurons and the nerve endings in relation to the dose
MPTP mouse model [3]; subacute phase after MPTP
  Dopaminergic innervation of the striatum (density of the dopamine transporter): virtually completely retained or restored
MPTP mouse model [4]; MPTP intoxication + rotigotine 0.3 mg/kg, single administration
  Number of degenerating neurons: 66.7
MPTP mouse model [4]; MPTP intoxication + rotigotine 1.0 mg/kg, single administration
  Number of degenerating neurons: 76.8
MPTP mouse model [4]; MPTP intoxication + rotigotine 3.0 mg/kg, single administration
  Number of degenerating neurons: 34.9
MPTP mouse model [4]; MPTP-vehicle + rotigotine 3.0 mg/kg (no MPTP)
  Number of degenerating neurons: 3.8
MPTP mouse model [4]; acute MPTP model, versus MPTP without rotigotine
  Number of degenerating neurons lower after application of rotigotine: approximately 50%
MPTP mouse model [4]; acute phase after MPTP, after administration of rotigotine
  Number of degenerating neurons in the mesencephalon: reduced
MPTP mouse model [4]; treated versus untreated animals, 24 hours after MPTP
  Staining of the tyrosine hydroxylase (dopaminergic neurons): did not identify any differences between the treated and untreated animals
